Ends that are not written are not given here.
Columns and labels:
Assay type in all cases: in vivo
[1] = Mice feeding studies: cumulative food intake after subcutaneous administration; conditions: mice fasted 16 h, over 48 hours
Method: Male C57BL/6 mice (Harlan) or male Wistar rats (Charles River Ltd, Margate, UK) were used for all animal experiments.
Mice were individually housed in IVC cages. Animals were randomised into treatment groups, with stratification by body weight. Mice were fasted overnight (16 hrs) prior to peptide or vehicle administration. All peptide solutions were prepared freshly, immediately prior to administration. The vehicle used for all studies was 5% v/v water and 95% v/v sodium chloride (0.9% w/v). Peptide and vehicle were administered by subcutaneous injection, with dosage corrected for bodyweight. The injection volume was […]. […] Food intake was measured at 24 and 48 hours post injection. All statistics are calculated using a one-way ANOVA with Dunnett's post-test or one-way ANOVA with Bonferroni post-test.
Peptide hormone analogues of the invention (G1698 [SEQ ID NO 1], 500 nmol/kg dosage, reconstituted in saline, and G1718 [SEQ ID NO 6], 200 nmol/kg dosage, reconstituted in saline), comparator compounds (G1697, 500 nmol/kg dosage, reconstituted in saline, and G1717, 200 nmol/kg dosage, reconstituted in saline), or saline (vehicle control group) were administered subcutaneously to mice (group size 4-6 animals). […] Food intake (in grams) was measured at time intervals over 48 hours.

[2] = Mice feeding studies: body weight increase over 7 days; conditions: 200 nmol/kg subcutaneous in saline, compared with comparator having only His30-His31-His32 (G1721 or G1779; FIGS. 4, 5)
[3] = Rat pharmacokinetic studies: plasma concentration after subcutaneous injection with ZnCl2 (radioimmunoassay); conditions: 4 rats, 2 mg of each compound in 20 μl aqueous ZnCl2 at 1:1 molar ratio, 3 days (FIG. 7)
Method: Male C57BL/6 mice (Harlan) or male Wistar rats (Charles River Ltd, Margate, UK) were used for all animal experiments. The pharmacokinetics of a peptide hormone analogue of the invention in rat was evaluated over 7 days. 4 rats were injected subcutaneously with the peptide hormone analogue G2051 [SEQ ID NO 197]. Each injection was of […] total volume/rat containing 2 mg peptide and 1 zinc ion (as ZnCl2) per peptide molecule. Blood was collected at the indicated time points, and the concentration of the peptide hormone analogue was determined. Peptide levels were assessed by/using radioimmunoassay using R4 exendin-4 antibody. […] 4 rats were injected subcutaneously with the peptide hormone analogue G2051 [SEQ ID NO 197]. Each injection was of 20 μl total volume/rat containing 2 mg peptide and 1 zinc ion (as ZnCl2) per peptide molecule. Blood was collected at the indicated time points, and the concentration of the comparator compound was determined. Peptide levels were assessed by/using radioimmunoassay using R4 exendin-4 antibody.

Substance	initial increase or spike in plasma concentration level [3]	further results
G1698: peptide hormone analogue of the invention; C-terminal extension His30-His31-His32-His33; full sequence only in FIG. 1 (HSQGTFTSDYSKYLDERRAHEFIEWLLNGHHHH; hormone analogue)	–	reduction of cumulative food intake relative to saline control ([1]; 500 nmol/kg subcutaneous in saline, compared with comparator G1697 (FIG. 2)): more potent and more sustained reduction
G1718: peptide hormone analogue of the invention; C-terminal extension His30-His31-His32-His33; full sequence only in FIG. 1 (HSQGTFTSDYSHYLDQRRAHEFIQWLLNGHHHH; hormone analogue)	–	reduction of cumulative food intake relative to saline control ([1]; 200 nmol/kg subcutaneous in saline, compared with comparator G1717 (FIG. 3)): more potent and more sustained reduction
G1722: peptide hormone analogue of the invention; C-terminal extension His30-His31-His32-His33; full sequence only in FIG. 1 (HSQGTFTSDYSHYLDSKRAHEFIQWLLNGHHHH; hormone analogue)	–	reduction of body weight increase relative to saline control [2]: more potent and more sustained reduction
G1781: peptide hormone analogue of the invention; full sequence only in FIG. 1 (HSQGTFTSDYSKYLDERRAHEFIEWLLNGGHHHH; hormone analogue)	–	reduction of body weight increase relative to saline control [2]: more potent and more sustained reduction
HSQGTFTSDYSKYLDHRRAKDFVQWLMNT-NH2 [G94]	initial increase or “spike” in plasma concentration level is observed	–
HSQGTFTSDYSKYLDSKKAQEFVEWLMNT [G202]	initial increase or “spike” in plasma concentration level is observed	–
HSQGTFTSDYSKYLDSKKAQEFVQWLLNT [G162]	initial increase or “spike” in plasma concentration level is observed	–
HSQGTFTSDYSKYLDSKKAQEFVQWLMNT-NH2 [G200]	initial increase or “spike” in plasma concentration level is observed	–

Source: patent US10125182B2, “Peptides hormone analogues derivable from preproglucagon” (IMPERIAL INNOVATIONS LIMITED, priority 2014, dated 2018)
